{
  "source": "paper doi:10.1101/2025.11.28.691146v1",
  "about": "(biorxiv, 2025)",
  "key": {"McrA [1]": {"target": "T1, McrA (Streptomyces lavendulae, UniProt P43485)", "T1 sequence (P43485 1-448)": "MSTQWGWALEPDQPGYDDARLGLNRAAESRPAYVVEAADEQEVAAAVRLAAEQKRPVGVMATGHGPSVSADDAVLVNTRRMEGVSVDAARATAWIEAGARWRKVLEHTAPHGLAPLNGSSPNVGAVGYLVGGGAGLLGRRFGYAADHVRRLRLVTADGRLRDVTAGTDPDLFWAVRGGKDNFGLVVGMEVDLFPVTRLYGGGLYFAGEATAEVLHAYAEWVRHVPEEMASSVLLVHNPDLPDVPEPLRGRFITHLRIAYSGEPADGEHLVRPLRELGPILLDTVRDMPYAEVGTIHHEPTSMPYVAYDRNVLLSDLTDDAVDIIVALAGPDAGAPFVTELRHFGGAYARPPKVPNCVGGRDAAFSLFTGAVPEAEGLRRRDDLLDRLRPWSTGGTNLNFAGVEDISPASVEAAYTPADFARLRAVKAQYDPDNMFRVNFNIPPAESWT", "assay": "microscale thermophoresis", "assay_type": "binding"}, "McrA [2]": {"target": "T1, McrA", "assay": "thermal shift, label-free intrinsic fluorescence", "assay_type": "binding", "settings": "read-out: dTm at 1 mM"}},
  "data": [
    {"smiles": "CO[C@@]12[C@H](COC(N)=O)C3=C(C(=O)C(C)=C(N)C3=O)N1C[C@@H]1N[C@@H]12", "note": "[mitomycin C]", "values": [
      {"measurement": "Kd", "setting": "McrA [1]", "result": "15.9 ± 4.5", "unit": "µM"},
      {"measurement": "ΔTm at 1000 µM", "setting": "McrA [2]", "result": 0.5, "unit": "°C"}
    ]}
  ]
}
